# Experimental data as given in patent US20220409617A1, “Drug Formulations and Methods of Treatment for Metabolic Disorders” (The Regents of the University of California, priority 2019, published 2022).
# Experiments:
# AKT = experiment: Insulin-stimulated AKT activation, western blot; assay type: cell-based, mouse; settings: 3T3-L1 adipocytes; 3 h pre-treatment, C2-ceramide 50 or 100 μM, 893 5 or 10 μM; insulin 100 nM 15 min
# Procedure: 3T3-L1 cells were maintained in DMEM with 10% FBS and 1% penicillin-streptomycin until induced to differentiate. 3T3-L1 pre-adipocytes were differentiated as described in (M. P. Valley, et al., Anal. Biochem. 505: 43-50, 2016, the disclosure of which is incorporated herein by reference) with slight modifications. Briefly, pre-adipocytes were grown to confluence. After 2 d, cells were induced with maintenance media containing 500 μM IBMX (15879, Sigma-Aldrich, St. Louis, Mo.), 1 μM dexamethasone (D4902, Sigma-Aldrich), 5 μg/mL bovine insulin (10516, Sigma-Aldrich), and 5 μM troglitazone (50-115-0786, ApexBio). Media was changed every 2-3 d for 7 d. On day 7 post-induction, media was changed to maintenance media+5 μg/mL bovine insulin. On day 9 post-induction, media was changed to maintenance media. Mature adipocytes were used 12-14 d post-induction for all experiments. […]
# Mature adipocytes were serum starved for 16 h then treated with vehicle, ceramide (50 or 100 μM), or sphingolipid-like compound 893 (5 or 10 μM) in serum-free media supplemented with 0.2% fatty-acid free BSA for 3 h after which 100 nM insulin was added for 15 min. […] Protein content was quantified in the supernatant using the Pierce™ BCA Protein Assay Kit (Thermo-Fisher Scientific, Waltham, Mass.). […]
# [1] = Plasma pharmacokinetics in mice; assay type: in vivo; settings: mouse, po, single dose 120 mg/kg by gavage
# Procedure: Plasma pharmacokinetic analysis of sphingolipid-like compound 893 was performed by Pharmaron Corporation (Beijing, China). C16:0 ceramide levels were quantified in cells using the method described in (T. Kasumov, et al., Anal. Biochem. 401: 154-161, 2010, the disclosure of which is incorporated herein by reference) with minor modifications. Cultured cells were washed twice in PBS and scraped into 250 μL of HPLC grade water and flash frozen until time of analysis. On the day of analysis, samples were thawed, and an aliquot used for protein quantification. For C16:0 ceramide levels in mouse liver, 25 mg of tissue was homogenized in 1 ml of ice-cold PBS using a mechanical probe homogenizer (VWR, Radnor, Pa.), protein levels quantified, and 50 μl of the homogenate diluted with 150 μl HPLC-grade water for C16:0 ceramide analysis. […] Samples were analyzed by ultra-performance liquid chromatography tandem mass spectrometry (UPLC-MS/MS) using a Waters Micromass Quattro Premier XE equipped with a Waters ACQUITY BEH C4 column (Waters Corp.). […] Standard curves prepared from C16:0 ceramide (#860516, Avanti Polar Lipids, Alabaster, Ala.) dissolved in ethanol were used for quantitation and were linear from 4.1 nM-1,000 nM, with an R^2 of 0.98 or greater.
structure (smiles),measurement,setting,value
CCCCCCCCc1ccc([C@H]2CCN[C@@H]2CO)cc1.Cl [compound 893],Insulin-stimulated AKT activation,AKT,"but not sphingolipid-like compound 893, interfered with insulin-stimulated AKT activation"
same,Tmax,[1],4 h
same,half-life,[1],10.6 h
